# Molecular target: T1, AHR (UniProt P35869)
# T1 sequence (P35869 1-848): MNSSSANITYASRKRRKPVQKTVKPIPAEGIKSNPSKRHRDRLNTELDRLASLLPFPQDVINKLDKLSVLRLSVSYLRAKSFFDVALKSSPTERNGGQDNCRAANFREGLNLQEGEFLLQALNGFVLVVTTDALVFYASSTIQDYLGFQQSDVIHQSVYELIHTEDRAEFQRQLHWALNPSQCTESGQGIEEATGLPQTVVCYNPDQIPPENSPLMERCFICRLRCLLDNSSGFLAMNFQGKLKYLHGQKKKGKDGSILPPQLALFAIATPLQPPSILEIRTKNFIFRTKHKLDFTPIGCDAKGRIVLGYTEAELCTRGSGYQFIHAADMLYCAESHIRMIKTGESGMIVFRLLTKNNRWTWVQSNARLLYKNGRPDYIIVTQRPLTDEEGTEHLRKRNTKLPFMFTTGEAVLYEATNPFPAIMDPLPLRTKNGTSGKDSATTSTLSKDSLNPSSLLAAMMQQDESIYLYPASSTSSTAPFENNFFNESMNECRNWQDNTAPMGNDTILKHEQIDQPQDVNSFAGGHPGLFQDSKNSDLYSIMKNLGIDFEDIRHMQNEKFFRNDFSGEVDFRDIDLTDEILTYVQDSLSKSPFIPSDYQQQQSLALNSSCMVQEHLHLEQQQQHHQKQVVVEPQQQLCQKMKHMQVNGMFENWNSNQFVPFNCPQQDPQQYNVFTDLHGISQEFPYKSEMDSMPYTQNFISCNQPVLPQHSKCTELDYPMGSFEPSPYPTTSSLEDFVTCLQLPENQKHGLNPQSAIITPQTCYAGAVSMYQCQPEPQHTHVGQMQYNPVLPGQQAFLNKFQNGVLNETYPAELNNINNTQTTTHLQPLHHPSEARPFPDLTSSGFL
# Experiment: DRE-Luciferase Reporter Assay (Alternate Method), Example 1B
# Type: cell-based
# Settings: concentration which inhibits half of the luciferase activity induced by AHR activating ligand; DRE-luciferase reporter cell line
# Outline: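 Murine (Hepa1-6, Hepa-1c1c7) or human (HepG2) cells carrying a stable or transient DRE-luciferase reporter, stimulated with an AHR agonist (e.g. TCDD, kynurenine, ITE, BNF, FICZ) plus compound at plating or after overnight culture at 37 °C. Luciferase read after 4, 15 or 24 h; IC50 as concentration halving agonist-only signal relative to no-ligand baseline.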
row,IC50,SMILES
1,> 1500 nM,"CC(C)c1cnn2c(N[C@@H]3CCc4[nH]c5ccccc5c4C3)nc(-n3cccn3)nc12 [Compound I-21, (3R)—N-(8-isopropyl-2-pyrazol-1-yl-pyrazolo[1,5-a][1,3,5]triazin-4-yl)-2,3,4,9-tetrahydro-1H-carbazol-3-amine]"
2,< 500 nM,"NCc1cnn2c(N[C@@H]3CCc4[nH]c5ccccc5c4C3)nc(-c3cncc(F)c3)nc12 [Compound I-4, (3R)—N-[8-(Aminomethyl)-2-(5-fluoro-3-pyridyl)pyrazolo[1,5-a][1,3,5]triazin-4-yl]-2,3,4,9-tetrahydro-1H-carbazol-3-amine]"
3,> 1500 nM,"CC(C)c1cnn2c(N[C@@H]3CCc4[nH]c5ccccc5c4C3)nc(-c3ccn(C)c(=O)c3)nc12 [Compound I-1, 4-[8-Isopropyl-4-[[(3R)-2,3,4,9-tetrahydro-1H-carbazol-3-yl]amino]pyrazolo[1,5-a][1,3,5]triazin-2-yl]-1-methyl-pyridin-2-one]"
4,< 500 nM,"C[C@@H](O)c1cnc2c(N[C@@H]3CCc4[nH]c5ccccc5c4C3)nc(-c3cncc(F)c3)nn12 [Compound I-42b, (1R)-1-[2-(5-Fluoro-3-pyridyl)-4-[[(3R)-2,3,4,9-tetrahydro-1H-carbazol-3-yl]amino]imidazo[2,1-f][1,2,4]triazin-7-yl]ethanol]"
5,< 500 nM,"C[C@H](NC(=O)N1CCN(C)CC1)c1cnn2c(N[C@@H]3CCc4[nH]c5ccccc5c4C3)nc(-c3cncc(F)c3)nc12 [Compound I-61a, N-[(1S)-1-[2-(5-Fluoro-3-pyridyl)-4-[[(3R)-2,3,4,9-tetrahydro-1H-carbazol-3-yl]amino]pyrazolo[1,5-a][1,3,5]triazin-8-yl]ethyl]-4-methyl-piperazine-1-carboxamide]"
6,< 500 nM,"COCC[C@H](C)c1cnn2c(N[C@@H]3CCc4[nH]c5ccccc5c4C3)nc(-c3cncc(F)c3)nc12 [Compound I-65a, (3R)—N-[2-(5-Fluoro-3-pyridyl)-8-[(1S)-3-methoxy-1-methyl-propyl]pyrazolo[1,5-a][1,3,5]triazin-4-yl]-2,3,4,9-tetrahydro-1H-carbazol-3-amine]"
7,> 1500 nM,"CC(C)c1cnn2c(NCCCO)nc(-c3cncc(F)c3)nc12 [Compound I-43, 3-[[2-(5-Fluoro-3-pyridyl)-8-isopropyl-pyrazolo[1,5-a][1,3,5]triazin-4-yl]amino]propan-1-ol]"
8,< 500 nM,"CC(C)c1cnn2c(NCCc3cccnc3N)nc(-c3cncc(F)c3)nc12 [Compound I-58, N-[2-(2-Amino-3-pyridyl)ethyl]-2-(5-fluoro-3-pyridyl)-8-isopropyl-pyrazolo[1,5-a][1,3,5]triazin-4-amine]"
9,< 500 nM,"C[C@@H](NC(=O)N1CCOCC1)c1cnn2c(N[C@@H]3CCc4[nH]c5ccccc5c4C3)nc(-c3cncc(F)c3)nc12 [Compound I-56b, N-[(1R)-1-[2-(5-Fluoro-3-pyridyl)-4-[[(3R)-2,3,4,9-tetrahydro-1H-carbazol-3-yl]amino]pyrazolo[1,5-a][1,3,5]triazin-8-yl]ethyl]morpholine-4-carboxamide]"
10,< 500 nM,"Fc1cncc(-c2nc(N[C@@H]3CCc4[nH]c5ccccc5c4C3)n3ncc(C4CCOC4)c3n2)c1 (stereo partly drawn) [Compound I-18, (3R)—N-[2-(5-fluoro-3-pyridyl)-8-tetrahydrofuran-3-yl-pyrazolo[1,5-a][1,3,5]triazin-4-yl]-2,3,4,9-tetrahydro-1H-carbazol-3-amine]"
11,> 1500 nM,"CC(C)c1cnn2c(N[C@@H]3CCc4[nH]c(=O)ccc4C3)nc(-c3cncc(F)c3)nc12 [Compound I-36a, (R)-6-((2-(5-Fluoropyridin-3-yl)-8-isopropylpyrazolo[1,5-a][1,3,5]triazin-4-yl)amino)-5,6,7,8-tetrahydroquinolin-2(1H)-one]"
12,< 500 nM,"CC(C)c1cnn2c(N[C@H]3CNc4ncccc4C3)nc(-c3cncc(F)c3)nc12 [Compound I-37b, (3R)—N-[2-(5-Fluoro-3-pyridyl)-8-isopropyl-pyrazolo[1,5-a][1,3,5]triazin-4-yl]-1,2,3,4-tetrahydro-1,8-naphthyridin-3-amine]"
13,> 1500 nM,"CC(C)c1cnn2c(N[C@@H]3Cc4[nH]cnc4NC3=O)nc(-c3cncc(F)c3)nc12 [Compound I-62b, (6R)-6-[[2-(5-fluoro-3-pyridyl)-8-isopropyl-pyrazolo[1,5-a][1,3,5]triazin-4-yl]amino]-1,4,6,7-tetrahydroimidazo [4,5-b]pyridin-5-one]"
14,1000 to 1500 nM,"C[C@H](NCC1CC1)c1cnn2c(N[C@@H]3CCc4[nH]c5ccccc5c4C3)nc(-c3cncc(F)c3)nc12 [Compound I-20a, (3R)—N-[8-[(1S)-1-(Cyclopropylmethylamino)ethyl]-2-(5-fluoro-3-pyridyl)pyrazolo[1,5-a][1,3,5]triazin-4-yl]-2,3,4,9-tetrahydro-1H-carbazol-3-amine]"
15,> 1500 nM,"CC(C)c1cnn2c(N[C@@H]3CCc4[nH]ncc4C3)nc(-c3cncc(F)c3)nc12 [Compound I-7a, 2-(5-fluoro-3-pyridyl)-8-isopropyl-N-[(5R)-4,5,6,7-tetrahydro-1H-indazol-5-yl]pyrazolo[1,5-a][1,3,5]triazin-4-amine]"
16,500 to 1000 nM,"CC(C)c1cnn2c(N[C@@H]3CNc4ncccc4C3)nc(-c3cncc(F)c3)nc12 [Compound I-37a, (3S)—N-[2-(5-Fluoro-3-pyridyl)-8-isopropyl-pyrazolo[1,5-a][1,3,5]triazin-4-yl]-1,2,3,4-tetrahydro-1,8-naphthyridin-3-amine]"
17,> 1500 nM,"CC(C)c1cnn2c(N[C@H]3CCc4[nH]c5c(O)cccc5c4C3)nc(-c3cncc(F)c3)nc12 [Compound I-24b, (6S)-6-[[2-(5-fluoro-3-pyridyl)-8-isopropyl-pyrazolo[1,5-a][1,3,5]triazin-4-yl]amino]-6,7,8,9-tetrahydro-5H-carbazol-1-ol]"
18,> 1500 nM,"CC(C)c1cnn2c(N[C@@H]3CCc4[nH]c5ccccc5c4C3)nc(-c3cncc(N(C)C)c3)nc12 [Compound I-5, (3R)—N-[2-[5-(Dimethylamino)-3-pyridyl]-8-isopropyl-pyrazolo[1,5-a][1,3,5]triazin-4-yl]-2,3,4,9-tetrahydro-1H-carbazol-3-amine]"
19,> 1500 nM,"CC(C)c1cnn2c(N[C@@H]3CCc4[nH]c5ccccc5c4C3)nc([C@H]3CCCOC3)nc12 [Compound I-15b, (3R)—N-[8-isopropyl-2-[(3R)-tetrahydropyran-3-yl]pyrazolo[1,5-a][1,3,5]triazin-4-yl]-2,3,4,9-tetrahydro-1H-carbazol-3-amine]"
20,1000 to 1500 nM,"CC(C)c1cnn2c(N[C@@H]3CNc4ccccc4C3)nc(-c3cncc(F)c3)nc12 [Compound I-35a, (3S)—N-[2-(5-Fluoro-3-pyridyl)-8-isopropyl-pyrazolo[1,5-a][1,3,5]triazin-4-yl]-1,2,3,4-tetrahydroquinolin-3-amine]"
21,500 to 1000 nM,"Fc1cncc(-c2nc(N[C@@H]3CCc4[nH]c5ccccc5c4C3)n3nc4c(c3n2)CCCC4)c1 [Compound I-30, 2-(5-fluoro-3-pyridyl)-N-[(3R)-2,3,4,9-tetrahydro-1H-carbazol-3-yl]-7,8,9,10-tetrahydro-[1,3,5]triazino[1,2-b]indazol-4-amine]"

# Reference: patent US20220144839A1, “INDOLE AHR INHIBITORS AND USES THEREOF” (Ikena Oncology, Inc., priority 2018, published 2022)
